We go through one molecule from PMC11189555, “Aryl amino acetamides prevent Plasmodium falciparum ring development via targeting the lipid-transfer protein PfSTART1” (Nature Communications, 2024).

Data set [1] concerns the target T1, PfSTART1 (Plasmodium falciparum, UniProt Q8I298).
T1 construct: endogenous in cells; host or cells: P. falciparum mature blood stages (30-42 hpi), soluble lysate
It is filed as binding. The conditions noted are these: 100 µM W-991 vs DMSO; 7-25% AEF; p = 0.0014. As to the method: The experiment was carried out in three biological replicates. Saponin-liberated mature parasite stages (30-42 hpi) were resuspended in PBS and lysed by 3x flash freeze/thawing using liquid N2, followed by 10 x mechanical sheering with a 29 G needle-syringe, and soluble protein isolation through ultracentrifugation (100,000 g; 20 min, 4 °C). Protein lysate was exposed to the 100 µM of W-991 or the vehicle control (DMSO) for 3 min and subsequently incubated with varying concentration of the solvent mixture ‘AEF’ (50% Acetone, 50% Ethanol, 0.1% Formate) to a final concentration of 7-25% (v/v) with 2% intervals, for 20 min at 37 °C at 800 rpm on a Thermomixer (Eppendorf). Denatured protein was pelleted through centrifugation (4 °C, 18,000 g, 20 min), and the soluble phase was recovered and pulled together in equivolume ratios into two samples; Gradient 1 ‘G1’: 7-15% EAF and Gradient 2 ‘G2’: 17-25% EAF, respectively. […]
Peptide samples were analysed on Orbitrap Eclipse Tribrid mass spectrometer that is interfaced with the Neo Vanquish liquid chromatography system. […] Subsequently, the differential abundance analysis (moderated t-test, based on limma package[81]) of P. falciparum proteins was conducted in the R environment (R version 4.2.0; R Studio Version 2023.12.1 + 402) using precursor normalised MaxLFQ data for proteins detected with ≥2 peptides. […]

The test system of data set [2] is stage IV-V gametocytes. In words: Standard membrane feeding assay: stage V gametocytes on day 17. The note with it: days 14-17; for Percentage of Stage V gametocytes: Fig 7C, untreated 4.75. Type of data set: cell-based, Plasmodium falciparum. As to the method:
These assays were performed at the Walter and Eliza Hall Institute and at the London School of Hygiene and Tropical Medicine using slightly different approaches which are described in the Supplementary Information. […]
Gametocyte culturing and standard membrane feeding assay (London School of Hygiene and Tropical Medicine). P. falciparum NF54 gametocytes were prepared for blood-feeding to mosquitoes according to the method described by 13, with some slight modifications. Briefly, gametocyte cultures seeded at 2% overall parasitaemia and 4% haematocrit were maintained at 37 °C for 17 days with daily media changes.
Gametocyte functional viability was assessed by ex-flagellation assay at day 14 post induction, observed by light microscopy. An. stephensi (SD500 strain) were reared as […]
Gametocyte aliquots from a single NF54 culture, produced as above, were incubated […]
or culture medium only (no -drug control) from day 14 until day 17 when SMFA was carried out. Fresh drug -containing media was provided each day during this exposure.
Pots of 70 -80 two- to five-day old female An. stephensi mosquitoes were allowed to feed on 500 µL of the respective culture+drug mixture, presented to each pot in a pre - heated 3D -printed water channel membrane feeder 15, until fully fed. Mosquitoes were placed in an incubator at standard conditions and midguts dissected in 0.25% mercurochrome stain for oocyst counts by light microscopy 7-8 days post-feed. […]

Molecules are shown by their SMILES. Entries after “also recorded” stand apart in the source; their conditions may differ.

T1 sequence (Q8I298 entry or part of it): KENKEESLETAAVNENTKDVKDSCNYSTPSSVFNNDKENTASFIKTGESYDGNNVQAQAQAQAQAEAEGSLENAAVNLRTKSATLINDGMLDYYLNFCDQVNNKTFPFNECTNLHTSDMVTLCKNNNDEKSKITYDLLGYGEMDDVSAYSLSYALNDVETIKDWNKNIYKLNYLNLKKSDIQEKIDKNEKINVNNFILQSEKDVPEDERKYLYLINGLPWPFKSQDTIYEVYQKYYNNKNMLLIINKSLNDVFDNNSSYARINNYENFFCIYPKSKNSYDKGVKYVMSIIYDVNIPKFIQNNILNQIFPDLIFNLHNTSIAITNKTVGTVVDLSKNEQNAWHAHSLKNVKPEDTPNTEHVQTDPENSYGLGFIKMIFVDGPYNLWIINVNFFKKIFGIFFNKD

Regarding `CC(C)(Nc1ccc(Cl)c(S(=O)(=O)N2CCOCC2)c1)C(=O)Nc1ccc(F)c(Cl)c1` [W-991], the “soluble protein level in the presence of compound (stabilisation)” value in data set [1] was “significantly (p < 0.01) increased levels”. The “Percentage of Stage V gametocytes” value in data set [2] (W-991 1 nM) was determined as 5%; in data set [2] (W-991 50 nM), 5.3%; in data set [2] (W-991 100 nM), 5%. For the same molecule, the “effect on gametocyte development” value in data set [2] (W-991 1, 50, 100 nM) is “no defect in gametocyte development; also recorded: no impact”.
